Among the data in US11000038B2, “Pyridone compounds and agricultural and horticultural fungicides containing the same as active ingredients” (priority 2017, dated 2021) are pest or weed control values, retold here.

Assay [1] relates to cabbage Alternaria sooty spot fungi (Alternaia brassicicola). The assay can be described thus: Test Example C: cabbage Alternaria sooty spot, spray treatment of cabbage plants. Type of assay: in vivo. The settings on record: control value=100{1-(n/3)}, read-out: Test C control value class (cabbage Alternaria sooty spot). The source says: [Test Example C] Cabbage Alternaria Sooty Spot
Test plants (cabbage variety: Shikidori) were cultivated until the cotyledons extended after the sowing of seeds.
<Control Value> Control value=100{1−(n/3)}

Assay [2] concerns wheat brown rust fungi (Puccinia recondita). The assay can be described thus: Test Example E: wheat brown rust, spray treatment of wheat plants. Type of assay: in vivo. The settings on record: control value=100{1-(n/3)}, read-out: Test E control value class (wheat brown rust).
For assay [3], the system named is tomato late blight fungi (Phytophthora infestans). Kind of assay: whole plant or invertebrate. The assay is classed as in vivo. The settings on record: read-out: Test F control value class (tomato late blight).
Assay [4] concerns rice blast fungi (Magnaporthe grisea). Kind of assay: whole plant or invertebrate. The conditions noted are these: Pyricularia oryzae, read-out: Test A control value class (rice blast). Type of assay: in vivo.
Assay [5] deals with cucumber anthracnose fungi (Colletotrichum orbiculare). Kind of assay: Test Example H: cucumber anthracnose, spray treatment of cucumber plants. The settings on record: in Cucumis sativus, read-out: Test H control value class (cucumber anthracnose).
Method: [Test Example H] Cucumber Anthracnose
Test plants (cucumber variety: Sagami Hanjiro) were cultivated until one first leaf appeared after the sowing of seeds. In the test, the chemical solution was obtained by dissolving the compound of the present invention in a dimethylsulfoxide-methanol mixed solvent (volume ratio: 9/1) and appropriately diluting the resultant solution with well water so that the concentration was 250 ppm. The obtained chemical solution was sprayed to the test plants (2.5 ml/pot). The plants after the drying of the chemical liquid were inoculated with cucumber anthracnose fungi (Colletotrichum orbiculare) by spraying a conidial suspension of 2 to 4×10^5 conidia/ml. After the inoculation, the plants were allowed to stand, for about 24 hours, in a moist chamber with the room temperature of 20 to 23° C. to promote the onset of disease. The degree of disease development after 6 to 10 days from the inoculation was investigated to evaluate the effect of the chemical solution.
(§1) With respect to each Test Example described above, the degree of disease development was evaluated as a value with increments of 0.05, regarding the degree of disease development for plants with no onset of disease as 0 and that for plants of untreated group as 3. Further, from the degrees of disease development, a control value was calculated according to the calculation formula below.
(§2) n=Degree of disease development of each chemical treated group
In assay [6] the test system is gray mold fungi (Botrytis cinerea). The assay can be described thus: Test Example B: tomato gray mold, spray treatment of tomato plants. The conditions noted are these: in Solanum lycopersicum, read-out: Test B control value class (tomato gray mold).
From the text: [Test Example B] Tomato Gray Mold
Test plants (tomato variety: Oogata Fukuju) were cultivated until three to five first leaves (true leaves) appeared after the sowing of seeds. In the test, the chemical solution was obtained by dissolving the compound of the present invention in a dimethylsulfoxide-methanol mixed solvent (volume ratio: 9/1) and appropriately diluting the resultant solution with well water so that the concentration was 250 ppm. The obtained chemical solution was sprayed to the test plants (2.5 ml/pot). The plants after the drying of the chemical liquid were inoculated with gray mold fungi (Botrytis cinerea) by spraying a conidial suspension of 4 to 8×10^5 conidia/ml. After the inoculation, the plants were allowed to stand, for about 48 hours, in a moist chamber with the room temperature of 20 to 23° C. to promote the onset of disease. The degree of disease development after 2 to 3 days from the inoculation was investigated to evaluate the effect of the chemical solution.
as §1, §2
Assay [7] has as its system grape downy mildew fungus (Plasmopara viticola). The assay can be described thus: Test Example G: grape downy mildew, spray treatment of grape plants. The settings on record: read-out: Test G control value class (grape downy mildew).
Method: Test plants (grape variety: Neomuscat) were cultivated until three to four first leaves appeared after the sowing of seeds. In the test, the chemical solution was obtained by dissolving the compound of the present invention in a dimethylsulfoxide-methanol mixed solvent (volume ratio: 9/1) and appropriately diluting the resultant solution with well water so that the concentration was 250 ppm. The obtained chemical solution was sprayed to the test plants (2.5 ml/pot). The plants after the drying of the chemical liquid were inoculated with grape downy mildew fungus (Plasmopara viticola) by spraying a zoosporangial suspension of 1 to 2×10^4 zoosporangia/ml. After the inoculation, the plants were allowed to stand, for about 24 hours, in a moist chamber with the room temperature of 20° C. to promote the onset of disease. The degree of disease development after 7 to 10 days from the inoculation was investigated to evaluate the effect of the chemical solution.
as §1, §2

Some results are limits rather than exact numbers.

As for `O=c1c(Br)cn(-c2ccccc2Cl)c(-c2c(F)cc(F)cc2F)c1Br` [Compound 1, 3,5-dibromo-1-(2-chlorophenyl)-2-(2,4,6-trifluorophenyl)pyridin-4(1H)-one], the pest or weed control at 250 µg/mL in assay [1] was greater than 50%; in assay [2], greater than 50%; in assay [3], less than 50%; in assay [4], greater than 50%; in assay [6], greater than 50%. Besides, the pest or weed control at 250 ppm in assay [5] and in assay [7] was greater than 50% throughout.
In the case of `O=c1c(Br)cn(-c2ccccc2Cl)c(-c2c(F)cc(F)cc2F)c1Cl` [Compound 2, 5-bromo-3-chloro-1-(2-chlorophenyl)-2-(2,4,6-trifluorophenyl)pyridin-4(1H)-one], the pest or weed control at 250 µg/mL in assay [1] is greater than 50%; in assay [2], greater than 50%; in assay [3], less than 50%; in assay [4] it was greater than 50%; in assay [6], greater than 50%. The pest or weed control at 250 ppm in assay [5] and in assay [7] was greater than 50% throughout.
`O=c1c(Cl)cn(-c2ccccc2Cl)c(-c2c(F)cc(F)cc2F)c1Cl` [Compound 4, 3,5-dichloro-1-(2-chlorophenyl)-2-(2,4,6-trifluorophenyl)pyridin-4(1H)-one]: the pest or weed control at 250 µg/mL in assay [1] was greater than 50%; in assay [2], greater than 50%; in assay [3] it was less than 50%; in assay [4], greater than 50%; in assay [6], greater than 50%. Moreover, the pest or weed control at 250 ppm in assay [5] and in assay [7] was greater than 50% in each case.
Take `COc1cc(F)c(-c2c(Cl)c(=O)c(Cl)cn2-c2ccccc2Cl)c(F)c1` [Compound 5, 3,5-dichloro-1-(2-chlorophenyl)-2-(2,6-difluoro-4-methoxyphenyl)pyridin-4(1H)-one]: the pest or weed control at 250 µg/mL in assay [1] was greater than 50%; in assay [2] it was greater than 50%; in assay [3], less than 50%; in assay [4] it was greater than 50%; in assay [6], greater than 50%. The pest or weed control at 250 ppm in assay [5] and in assay [7] was greater than 50% throughout.
In the case of `O=c1c(Br)cn(-c2cccnc2Cl)c(-c2c(F)cc(F)cc2F)c1Br` [Compound 38, 3,5-dibromo-2′-chloro-2-(2,4,6-trifluorophenyl)-4H-[1,3′-bipyridin]-4-one], the pest or weed control at 250 µg/mL in assay [1], in assay [2], in assay [3], in assay [4] and in assay [6] was greater than 50% throughout. For the same molecule, the pest or weed control at 250 ppm in assay [5] and in assay [7] was greater than 50% each time.
For the molecule `O=c1c(Cl)cn(Cc2ccccc2)c(-c2c(F)cc(F)cc2F)c1Br` [Compound 49, 1-benzyl-3-bromo-5-chloro-2-(2,4,6-trifluorophenyl)pyridin-4(1H)-one], the pest or weed control at 250 µg/mL in assay [1], in assay [2], in assay [3], in assay [4] and in assay [6] was greater than 50% in each case. Moreover, the pest or weed control at 250 ppm in assay [5] and in assay [7] was greater than 50% each time.
Regarding `Cc1cc(-n2cc(Cl)c(=O)c(Br)c2-c2c(F)cc(F)cc2F)no1` [Compound 141, 3-bromo-5-chloro-1-(5-methylisoxazol-3-yl)-2-(2,4,6-trifluorophenyl)pyridin-4(1H)-one], the pest or weed control at 250 µg/mL in assay [1] was greater than 50%; in assay [2], greater than 50%; in assay [3], less than 50%; in assay [4], less than 50%; in assay [6], greater than 50%. Moreover, the pest or weed control at 250 ppm in assay [5] and in assay [7] was less than 50% each time.
In the case of `Cc1onc(-n2cc(Cl)c(=O)c(Br)c2-c2c(F)cc(F)cc2F)c1Br` [Compound 142, 3-bromo-1-(4-bromo-5-methylisoxazol-3-yl)-5-chloro-2-(2,4,6-trifluorophenyl)pyridin-4(1H)-one], the pest or weed control at 250 µg/mL in assay [1], in assay [2], in assay [3], in assay [4] and in assay [6] was greater than 50% throughout. The pest or weed control at 250 ppm in assay [5] and in assay [7] was greater than 50% each time.
As to `CCC(C)Cn1cc(Cl)c(=O)c(Cl)c1-c1c(F)cc(F)cc1F` (centres unmarked) [Compound 162, 3,5-dichloro-1-(2-methylbutyl)-2-(2,4,6-trifluorophenyl)pyridin-4(1H)-one], the pest or weed control at 250 µg/mL was greater than 50% in assay [1]; greater than 50% in assay [2]; less than 50% in assay [3]; greater than 50% in assay [4]; greater than 50% in assay [6]. For the same molecule, the pest or weed control at 250 ppm in assay [5] and in assay [7] was greater than 50% in each case.
On to `Cc1ccccc1-n1cc(C)c(=O)c(C)c1-c1c(F)cc(F)cc1F` [Compound 174, 3,5-dimethyl-1-(o-toluyl)-2-(2,4,6-trifluorophenyl)pyridin-4(1H)-one], for which the pest or weed control at 250 µg/mL in assay [1] is greater than 50%; in assay [2], greater than 50%; in assay [3] it was less than 50%; in assay [4], greater than 50%; in assay [6] it was greater than 50%. Also, the pest or weed control at 250 ppm in assay [5] and in assay [7] was greater than 50% in each case.
As for `COc1cc(F)c(-c2c(C)c(=O)c(C)cn2-c2ccccc2C)c(F)c1` [Compound 175, 2-(2,6-difluoro-4-methoxyphenyl)-3,5-dimethyl-1-(o-toluyl)pyridin-4(1H)-one], the pest or weed control at 250 µg/mL in assay [1] was greater than 50%; in assay [2] it was greater than 50%; in assay [3] it was less than 50%; in assay [4] it was greater than 50%; in assay [6] it was greater than 50%. Besides, the pest or weed control at 250 ppm in assay [5] and in assay [7] was greater than 50% throughout.
